According to patent publication US10233202B2, “Tenofovir monobenzyl ester phosphamide prodrug, preparation method and use thereof” (JIANGSU TASLY DIYI PHARMACEUTICAL CO., LTD., priority 2015, dated 2019):
Structures can show the parent of a compound that is named as a salt. Where two headings read alike, the source gives them in different places. One block for each compound: values may come before it.

Assays:
HBV = experiment: Cell based anti-HBV activity test, HBV DNA in HepG2.2.15 cell supernatant by qPCR; details: Hepatitis B virus
Description: (§1) 8.1. Dilution of the compounds: the initial concentration of each compound in the in vitro anti-HBV activity test was 1 μM, with 3-fold serial dilution to 8 concentrations; the initial concentration of each compound in the cytotoxicity test was 100 μM, with 3-fold serial dilution to 8 concentrations; DMSO was used for the dilution of the compound mother liquor. The initial concentrations of the reference compound TDF for the anti-HBV activity test in vitro and the cytotoxicity test were all set at 0.2 μM, with 3-fold serial dilution to 8 concentrations.
8.2. Anti-HBV activity test in vitro: the HepG2.2.15 cells were plated in the 96-well plate (4×10^4 cells/well), and cultured overnight at 37° C. in 5% CO2. On second day, fresh culture solutions containing compounds of different concentrations were added to the culture wells. See Table 2 for the compound distribution. On 5th day, the used culture solutions in the culture wells were sucked and discarded, and fresh culture solutions containing compounds of different concentrations were added. On 8th day, the supernatant in the culture wells was collected for the extraction of HBV DNA in the supernatant. qPCR test was used to detect the concentration of HBV DNA content in the HepG2.2.15 supernatant.
8.4. Data analysis and calculation of the inhibition percentage and relative cell viability: The inhibition percentage was calculated using the following formula: % Inh.=[(HBV quantity of DMSO control−HBV quantity of sample)/HBV quantity of DMSO control]×100%
9.1 Drugs: the dilution method and concentrations of compound 3, the reference compound (CN201380030061.6, and the compound shown in claim 36 (abbreviation: compound 7), and the isomer thereof) were the same as those in example 1.
(§2) 9.2 Test method: the test was carried out according to the procedure in example 1.

in vitro = format: cell-based; details: human, HepG2.2.15 cells
Description: (§3) The concentration of HBV DNA in the HepG2.2.15 cell supernatant was detected through the real-time fluorescence quantitative PCR (qPCR) method to determine the anti-HBV activity of the compound in the HepG2.2.15 cells, and the effect of the testing compounds to the HepG2.2.15 cell activity was detected through Cell-titer Blue.
as §1
(§4) 8.3. Treatment of the cells in the cell viability test: the HepG2.2.15 cells were plated in the 96-well plate (4×10^4 cells/well), and cultured overnight at 37° C. in 5% CO2. On 2nd day, fresh culture solutions containing compounds of different concentrations were added to the culture wells. See Table 3 for the compound distribution. On 5th day, the used culture solutions in the culture wells were sucked and discarded, and fresh culture solutions containing compounds of different concentrations were added. On 8th day, Cell-titer Blue agent was added to each well, and the microplate reader was used to detect the fluorescence value of each well.
(§5) The cell viability percentage was calculated using the following formula: % cell viability=(fluorescence of sample−fluorescence of medium control)/(fluorescence of DMSO control−fluorescence of medium control)[…] 100%
as §2

[1] = Stability in the simulated gastric fluid; format: in vitro ADME; details: 10 μM
Description: (§6) The following stability test were carried out according to the prior art, and the data of the stability test shown in the table were the residue percentages after the test compounds were incubated for different period of time under the test condition.

[2] = Stability in the human blood; format: in vitro ADME; details: 2 μM
Description: as §6

hERG K-channel = hERG K-channel (Homo sapiens, UniProt Q12809); experiment: hERG manual whole-cell patch clamp in CHO cells (cardiotoxicity study); details: IC50, hERG current, room temperature
Sequence of hERG K-channel (Q12809 whole entry): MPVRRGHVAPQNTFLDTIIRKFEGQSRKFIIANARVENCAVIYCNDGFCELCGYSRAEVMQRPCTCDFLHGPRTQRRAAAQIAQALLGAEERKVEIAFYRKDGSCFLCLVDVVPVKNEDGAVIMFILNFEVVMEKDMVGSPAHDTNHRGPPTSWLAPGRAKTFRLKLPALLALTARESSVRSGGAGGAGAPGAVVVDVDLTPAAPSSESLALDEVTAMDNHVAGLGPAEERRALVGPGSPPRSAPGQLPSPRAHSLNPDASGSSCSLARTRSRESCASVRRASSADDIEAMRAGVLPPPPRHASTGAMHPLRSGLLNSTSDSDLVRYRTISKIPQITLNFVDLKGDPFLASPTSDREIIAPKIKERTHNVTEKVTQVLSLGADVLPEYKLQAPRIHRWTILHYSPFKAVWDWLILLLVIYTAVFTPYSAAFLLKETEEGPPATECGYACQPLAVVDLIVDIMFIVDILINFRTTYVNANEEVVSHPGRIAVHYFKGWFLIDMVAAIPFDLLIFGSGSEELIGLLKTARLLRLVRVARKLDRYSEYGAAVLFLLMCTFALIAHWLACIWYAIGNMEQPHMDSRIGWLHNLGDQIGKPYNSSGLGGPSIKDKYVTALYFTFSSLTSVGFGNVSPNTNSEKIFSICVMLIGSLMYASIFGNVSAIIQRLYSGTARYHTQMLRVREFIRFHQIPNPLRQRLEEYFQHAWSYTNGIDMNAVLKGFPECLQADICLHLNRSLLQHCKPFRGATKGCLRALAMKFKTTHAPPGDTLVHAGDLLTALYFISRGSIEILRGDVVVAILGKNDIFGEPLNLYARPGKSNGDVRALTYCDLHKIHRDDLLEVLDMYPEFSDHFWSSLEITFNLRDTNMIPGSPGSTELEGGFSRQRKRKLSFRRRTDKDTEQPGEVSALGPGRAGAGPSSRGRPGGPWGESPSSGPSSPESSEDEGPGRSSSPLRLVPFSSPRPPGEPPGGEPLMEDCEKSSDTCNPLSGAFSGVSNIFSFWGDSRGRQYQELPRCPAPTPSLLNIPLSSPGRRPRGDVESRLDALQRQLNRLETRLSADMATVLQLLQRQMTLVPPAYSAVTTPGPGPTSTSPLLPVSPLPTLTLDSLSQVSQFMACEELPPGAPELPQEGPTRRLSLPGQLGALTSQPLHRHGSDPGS
Description: The CHO cells obtained from AVivaBiosciences that could stably express the hERG K-channel were used in the test, and the cells were incubated at 37° C. in 5% CO2 and under constant humidity.
The final concentration of DMSO in the extracellular fluid was not higher than 0.30%.
The whole-cell patch clamp technique was used on the Multiclamp patch-clamp amplifier to test the compound at room temperature, the output signal was digitalized using the DIgiDAta 1440 A/D-D/A plate, and the Pclamp10 software was used for the control of the recording. The minimum sealing resistance was set at 500 MOh/ms, and the minimum specific hERG current was set at 0.4 nA for quality control.
Clampfit (V10.2, Molecular Devices), Excel 2003 and GraphPad Prism 5.0 were used for the data analysis. The calculation formula of the current: I/Icontrol=Bottom+(Top−Bottom)/(1+10^((LogIC50−Log C)*Hillslope

[3] = Cell viability test in MT-4 cells (CellTiter Glo); format: cell-based; details: human
Description: 9.3. Treatment of the cells in the cell viability test: parallel tests were carried out using the same method as that in 9.2, except that the 96-well plate containing the compounds of different concentrations were replaced with the blank 96-well plate, and CellTiter Glo was used to determine the cell viability to calculate the CC50 value.
(§7) 9.4. Data analysis and calculation of the inhibition percentage: the activity percentage was calculated using the following formula: Activity (%) =(Raw datacpd−AverageVC)/(AverageCC−AverageVC)*100Cell Viability (%)=Raw datacpd/AverageCC*100

HIV-1 IIIB = experiment: In vitro anti-HIV activity test in MT-4 cells infected with HIV-1 IIIB (CellTiter Glo); format: cell-based
Description: 9.1. Dilution and concentrations of the compounds and the reference compound (CN01813161GS-7340, TDF) were the same as those in example 1.
9.2. In vitro anti-HIV activity test: after MT-4 cells were infected with 24 TCID50HIV-1 IIIB/1×10^5 cells (2.4 TCID50/well) at 37° C. for 1 hour, they were plated in the 96-well plate containing the compounds of different concentrations ([…]) and cultured at 37° C. in 5% CO2 for 5 days. CellTiter Glo was used to determine the activity to calculate the EC50 value.
as §7

[4] = Stability in the simulated intestinal fluid; format: in vitro ADME; details: 10 μM
Description: as §6

[5] = Stability in the human liver S9; format: in vitro ADME; details: human liver S9, 1 μM
Description: as §6

[6] = oral, after intestinal absorption; cited from earlier work
HepG2.2.15 cells = experiment: in vitro; format: cell-based; details: comparative test, Table 4
Description: as §3, §1, §4, §5, §2

[7] = Human immunodeficiency virus 1, MT4, 120 h, MT-4 cells infected with HIV-1 IIIB, 5 days, read-out: EC50
[8] = HepG2.2.15, HepG2.2.15 cells, comparative test, Table 4, read-out: EC50
[9] = Cell-titer Blue on 8th day, Table 3

SMILES: CC(C)OC(=O)[C@H](C)N[P@](=O)(CO[C@H](C)Cn1cnc2c(N)ncnc21)Oc1ccccc1 [GS-7340]
- EC50 (HBV; HepG2.2.15): 0.0178 µM
- CC50 at 6 days (in vitro; comparative test, Table 4): > 100 µM
- % 0 min (residue percentage) [1]: 100%
- % 60 min (residue percentage) [1]: 95.40%
- % 120 min (residue percentage) [1]: 66.36%
- % 360 min (residue percentage) [1]: 23.41%
- % 1440 min (residue percentage) [1]: 0.19%
- % 0 min (residue percentage) [2]: 100%
- % 10 min (residue percentage) [2]: 93.2%
- % 30 min (residue percentage) [2]: 91.0%
- % 60 min (residue percentage) [2]: 90.3%
- % 120 min (residue percentage) [2]: 90.0%
- IC50 (hERG K-channel): > 10 µM
- CC50 at 5 days [3]: 13.3 µM
- EC50 (HIV-1 IIIB; Human immunodeficiency virus 1, IIIB, MT4, 120 h): 0.0143 µM
- % 0 min (residue percentage) [4]: 100%
- % 60 min (residue percentage) [4]: 30.09%
- % 120 min (residue percentage) [4]: 6.22%
- % 360 min (residue percentage) [4]: 0.06%
- % 1440 min (residue percentage) [4]: 0.00%
- CLlint(s9) [5]: 211.0 µL/min/mg
- half-life at 1 μM [5]: 3.3 min
- Remaining (T = 60 min) [5]: 4%
- CLlint(s9) ([5]; scaled per kg): 0.7427 mL/min/kg

- EC50 (HIV-1 IIIB; [7]): 0.017 µM
SMILES: CC(C)OC(=O)OCOP(=O)(CO[C@H](C)Cn1cnc2c(N)ncnc21)OCOC(=O)OC(C)C [TDF, Tenofovir Disoproxil Fumarate]
- CC50 at 5 days [3]: 21.3 µM
- fraction excreted out of the body in original form [6]: ~80%
- fraction metabolized and activated into the Tenofovir parent drug under the action of esterase [6]: less than 20%

SMILES: Cc1ccccc1CO[P@@](=O)(CO[C@H](C)Cn1cnc2c(N)ncnc21)N[C@@H](C)C(=O)OC(C)C [Compound 7b]
- EC50 (HBV; [8]): 0.275 µM
- CC50 (in vitro; comparative test, Table 4): > 100 µM
- % 0 min (residue percentage) [1]: 100%
- % 60 min (residue percentage) [1]: 82.76%
- % 120 min (residue percentage) [1]: 51.39%
- % 360 min (residue percentage) [1]: 13.16%
- % 1440 min (residue percentage) [1]: 0.00%
- % 0 min (residue percentage) [2]: 100%
- % 10 min (residue percentage) [2]: 93.5%
- % 30 min (residue percentage) [2]: 91.6%
- % 60 min (residue percentage) [2]: 90.5%
- % 120 min (residue percentage) [2]: 90.1%
- IC50 (hERG K-channel): > 10 µM
- CC50 at 5 days [3]: 14.7 µM
- EC50 (HIV-1 IIIB; [7]): 0.0837 µM
- % 0 min (residue percentage) [4]: 100%
- % 60 min (residue percentage) [4]: 31.28%
- % 120 min (residue percentage) [4]: 8.33%
- % 360 min (residue percentage) [4]: 0.09%
- % 1440 min (residue percentage) [4]: 0.00%
- CLlint(s9) [5]: 147.4 µL/min/mg
- half-life at 1 μM [5]: 4.7 min
- Remaining (T = 60 min) [5]: 5%
- CLlint(s9) ([5]; scaled per kg): 0.519 mL/min/kg

SMILES: CC(C)OC(=O)[C@H](C)N[P@](=O)(CO[C@H](C)Cn1cnc2c(N)ncnc21)OCc1ccccc1 (single isomer, unassigned) [Compound 3b]
- EC50 (HBV; HepG2.2.15, HepG2.2.15 cells, HBV DNA in supernatant on 8th day, Table 3, read-out: EC50): < 0.01 µM
- EC50 (HBV; [8]): 0.006 µM
- CC50 (HepG2.2.15 cells): > 100 µM
- CC50 (in vitro; [9]): > 100 µM
- % 0 min (residue percentage) [1]: 100%
- % 60 min (residue percentage) [1]: 84.26%
- % 120 min (residue percentage) [1]: 58.54%
- % 360 min (residue percentage) [1]: 17.28%
- % 1440 min (residue percentage) [1]: 0.00%
- % 0 min (residue percentage) [2]: 100%
- % 10 min (residue percentage) [2]: 97.1%
- % 30 min (residue percentage) [2]: 96.4%
- % 60 min (residue percentage) [2]: 96.1%
- % 120 min (residue percentage) [2]: 93.7%
- IC50 (hERG K-channel): > 30 µM
- CC50 at 5 days [3]: 16.9 µM
- EC50 (HIV-1 IIIB; [7]): 0.00986 µM
- % 0 min (residue percentage) [4]: 100%
- % 60 min (residue percentage) [4]: 51.07%
- % 120 min (residue percentage) [4]: 20.20%
- % 360 min (residue percentage) [4]: 0.23%
- % 1440 min (residue percentage) [4]: 0.00%
- CLlint(s9) [5]: 68.6 µL/min/mg
- half-life at 1 μM [5]: 10.1 min
- Remaining (T = 60 min) [5]: 9%
- CLlint(s9) ([5]; scaled per kg): 0.2415 mL/min/kg

SMILES: CC(C)OC(=O)[C@H](C)N[P@@](=O)(CO[C@H](C)Cn1cnc2c(N)ncnc21)OCc1ccccc1 (single isomer, unassigned) [Compound 3a]
- EC50 (HBV; [8]): 0.00339 µM
- CC50 (HepG2.2.15 cells): > 100 µM
- CC50 (in vitro; [9]): > 100 µM
- % 0 min (residue percentage) [1]: 100%
- % 60 min (residue percentage) [1]: 85.40%
- % 120 min (residue percentage) [1]: 58.07%
- % 360 min (residue percentage) [1]: 14.41%
- % 1440 min (residue percentage) [1]: 0.00%
- % 0 min (residue percentage) [2]: 100%
- % 10 min (residue percentage) [2]: 97.4%
- % 30 min (residue percentage) [2]: 98.9%
- % 60 min (residue percentage) [2]: 97.8%
- % 120 min (residue percentage) [2]: 94.5%
- IC50 (hERG K-channel): > 10 µM
- CC50 at 5 days [3]: 22.5 µM
- EC50 (HIV-1 IIIB; [7]): 0.00513 µM
- % 0 min (residue percentage) [4]: 100%
- % 60 min (residue percentage) [4]: 53.62%
- % 120 min (residue percentage) [4]: 23.45%
- % 360 min (residue percentage) [4]: 1.26%
- % 1440 min (residue percentage) [4]: 0.00%
- CLlint(s9) [5]: 70.0 µL/min/mg
- half-life at 1 μM [5]: 9.9 min
- Remaining (T = 60 min) [5]: 6%
- CLlint(s9) ([5]; scaled per kg): 0.2464 mL/min/kg
